Experiments:
[1] = system: histologically diverse tumor cells; settings: in vitro, cited from earlier work
[2] = Bioavailability study: safety (adverse events, laboratory abnormalities, vital signs); format: in vivo, human
Excerpt: On day 1 of each of the 3 study periods, the subjects received a single oral dose of 1 of 4 treatments (treatments A, B, C, or reference).
On day 1 of each of the 3 study periods, the subjects received a single oral dose of 1 of 4 treatments (A, B, C, or reference).

[3] = BCS classification system; format: physicochemical
Water solubility = format: physicochemical
[4] = Partition coefficient in 1-octanol/water system; format: physicochemical
[5] = Stability of CCI-779 (aqueous, oxidation, hydroalcoholic granulation solution); format: physicochemical
Excerpt: One obstacle towards the formulation of CCI-779 is its poor aqueous dissolution and low oral bioavailability. […] A CCI-779 formulation was developed that employed a wet granulation manufacturing process. See US Published Patent Application No. US-2004-0077677-A1. This process involved preparation of a hydroalcoholic granulation solution of CCI-779. Further, although the resulting tablets were stable and bioavailable, the preparation of the hydroalcoholic solution was very tedious.

## COC1C[C@@H]2CC[C@@H](C)[C@@](O)(O2)C(=O)C(=O)N2CCCC[C@H]2C(=O)O[C@H]([C@H](C)CC2CC[C@@H](OC(=O)C(C)(CO)CO)[C@H](OC)C2)CC(=O)[C@H](C)/C=C(\C)[C@@H](O)[C@@H](OC)C(=O)[C@H](C)C[C@H](C)/C=C/C=C/C=C/1C (stereo partly drawn) [CCI-779, Rapamycin 42-ester with 3-hydroxy-2-(hydroxymethyl)-2-methylpropionic acid]
[1]; CNS cancer, leukemia (T-cell), breast cancer, prostate cancer, melanoma lines among the most sensitive
  growth of tumor cells: inhibit the growth
[1]
  cell cycle effect: arrested cells in the G1 phase
[2]; all 45 treatment-emergent AEs
  severity of treatment-emergent AEs: mild
[2]; all treatments, 4 subjects
  subjects with aminotransferase elevations: 10%
[2]; all treatments, 5 subjects
  subjects with white blood cells in the urine: 13%
[2]; during the study
  deaths or other serious adverse events: No deaths or other serious adverse events occurred
[2]; in vivo
  vital sign measurements, electrocardiogram results, physical examination findings: No clinically significant trends
[2]; number of subjects, all treatments
  subjects with clinically significant laboratory abnormalities after dose administration: 13
[2]; number of the 45 AEs
  AEs considered by the investigator to be related to CCI-779 treatment: 16
[2]; of the 40 subjects who received CCI-779, all treatments
  subjects with at least 1 treatment-emergent adverse event (AE): 48%
[3]
  BCS classification: class II
Water solubility
  solubility: < 1 µg/mL
[4]
  Log PC: ≥ 4.1
[5]
  aqueous stability: aqueous instability
[5]; after its preparation
  stability of hydroalcoholic granulation solution of CCI-779: precipitating within one day

Source: patent publication US20080161336A1, “Orally bioavailable CCI-779 formulations” (Wyeth, priority 2005, published 2008)
